Results published in patent US8916681B2, “Compound, use and method” (Medical Research Council, priority 2007, dated 2014).
Non-standard residues stand in square brackets, D forms with d. Residues, ends and D or L forms follow the SMILES beside them.

Molecular target: GPR54 (Homo sapiens, UniProt Q969F8)
Test: Inositol phosphate (IP) antagonism assay: inhibition of 10 nM kisspeptin-10 stimulation of IP in CHO/gpr-54 cells
Type: cell-based
Design: G. Vassart, Univ; Brussels
Details: CHO cells, 10 nM kisspeptin-10; for IC50: unit inferred, given in M
Procedure: Inositol-3-phoshate Antagonistic Assay—Cell monolayers had 0.5 mls HEPES modified DMEM supplemented with […] for 30 mins at 37° C. to block IP3 breakdown. Cells were then stimulated with 0.25 mls 10 nM Kisspeptin-10 plus 0.25 mls of 10 nM Kisspeptin-10 or analogues (10 pM-10 uM) diluted at 1:1000 in the above media for 1 hr at 37° C., then in 10 mM Formic acid at 4° C. for 1 hr to lyse cells. Lysate was then transferred to plastic tubes containing 0.5 mls Dowex resin to bind the radioactive IP3 and the resin was then washed with 1 ml H2O. The resin was then washed with 60 mM NH4 formate/5 mM Sodium tetraborate followed by 1M NH4 formate/0.1M Formic acid to release the bound radiation. Then 800 μls of the radioactive solution were transferred to scintillation vials containing 2.5 mls scintillation fluid and radioactivity counted on a Beta counter for 60 seconds.
Chinese hamster ovary (CHO) cells stably-expressing the human gpr-54 receptor (CHO/gpr-54) were obtained from Prof. G. Vassart, Univ. Brussels. The cells were maintained in Dulbecco's modified Eagle's medium (DMEM; Sigma) supplemented with 10% fetal calf serum, 2% glutamine and 1% penicillin (10,000 units/ml)/streptomycin ([…]) at 37° C. in a humidified 5% CO2 atmosphere.
Experiments were repeated 3-5 times. IP production was plotted as mean values±SEM and analyzed using a Student's t-Test ([…]).

Sequence of GPR54 (Q969F8 whole entry): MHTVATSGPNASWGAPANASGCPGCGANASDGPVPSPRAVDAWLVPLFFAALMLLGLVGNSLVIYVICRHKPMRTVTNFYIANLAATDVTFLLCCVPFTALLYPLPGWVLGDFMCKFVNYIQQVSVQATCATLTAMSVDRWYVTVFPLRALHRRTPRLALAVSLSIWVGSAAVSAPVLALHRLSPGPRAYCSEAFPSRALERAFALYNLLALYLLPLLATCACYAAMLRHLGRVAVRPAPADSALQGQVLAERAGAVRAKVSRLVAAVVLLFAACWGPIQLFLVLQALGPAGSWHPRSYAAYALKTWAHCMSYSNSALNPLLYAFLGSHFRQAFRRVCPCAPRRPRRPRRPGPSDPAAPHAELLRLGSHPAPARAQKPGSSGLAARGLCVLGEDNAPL

Inhibition of IP stimulation by 10 nM Agonist: % Inhibition of Max | IC50 | SMILES
70% | – | CC(=O)N[C@@H](CC(N)=O)C(=O)N[C@@H](CO)C(=O)N[C@@H](Cc1ccccc1)C(=O)NCC(=O)N[C@@H](CC(C)C)C(=O)N[C@@H](CCCNC(=N)N)C(=O)N[C@@H](Cc1ccccc1)C(N)=O [Peptide 186] (Ac-NSFGLRF-NH2)
36% | – | CC(C)C[C@H](NC(=O)CNC(=O)[C@H](Cc1ccccc1)NC(=O)[C@H](CO)NC(=O)[C@H](CC(N)=O)NC(=O)[C@H](Cc1c[nH]c2ccccc12)NC(=O)[C@H](CC(N)=O)NC(=O)[C@@H](N)Cc1ccc(O)cc1)C(=O)N[C@@H](CCCNC(=N)N)C(=O)N[C@@H](Cc1c[nH]c2ccccc12)C(N)=O [Peptide 187] (H-YNWNSFGLRW-NH2)
74% | – | CC(=O)N[C@@H](Cc1ccccc1)C(=O)NCC(=O)N[C@@H](CC(C)C)C(=O)N[C@@H](CCCNC(=N)N)C(=O)N[C@@H](Cc1ccccc1)C(N)=O [Peptide 188] (Ac-FGLRF-NH2)
94% | – | CC(=O)N[C@@H](Cc1ccccc1)C(=O)NCC(=O)N[C@@H](CC(C)C)C(=O)N[C@@H](CCCNC(=N)N)C(=O)N[C@@H](Cc1c[nH]c2ccccc12)C(N)=O [Peptide 189]
71% | 10 nM | CC(=O)N[C@@H](Cc1ccccc1)C(=O)NCC(=O)N[C@H](Cc1ccccc1)C(=O)N[C@@H](CCCNC(=N)N)C(=O)N[C@@H](Cc1c[nH]c2ccccc12)C(N)=O [Peptide 190] (Ac-FG[dF]RW-NH2)
79% | – | CC(=O)N[C@@H](Cc1ccccc1)C(=O)NCC(=O)N[C@H](CC(C)C)C(=O)N[C@@H](CCCNC(=N)N)C(=O)N[C@@H](Cc1c[nH]c2ccccc12)C(N)=O [Peptide 191]
63% | 300 nM | CC(=O)N[C@@H](Cc1ccccc1)C(=O)NCC(=O)N[C@@H](CC(C)C)C(=O)N[C@H](CCCNC(=N)N)C(=O)N[C@@H](Cc1c[nH]c2ccccc12)C(N)=O [Peptide 200]
69% | 7 nM | CC(=O)N[C@@H](Cc1ccccc1)C(=O)NCC(=O)N[C@@H](C)C(=O)N[C@@H](CCCNC(=N)N)C(=O)N[C@@H](Cc1c[nH]c2ccccc12)C(N)=O [Peptide 201] (Ac-FGARW-NH2)
64% | 10 nM | CC(=O)N[C@@H](C)C(=O)NCC(=O)N[C@@H](CC(C)C)C(=O)N[C@@H](CCCNC(=N)N)C(=O)N[C@@H](Cc1c[nH]c2ccccc12)C(N)=O [Peptide 202] (Ac-AGLRW-NH2)
71% | 0.1 nM | CC(=O)N[C@H](Cc1ccccc1)C(=O)N[C@@H](Cc1c[nH]c2ccccc12)C(=O)N[C@@H](CC(C)C)C(=O)N[C@@H](CCCNC(=N)N)C(=O)N[C@@H](Cc1c[nH]c2ccccc12)C(N)=O [Peptide 203] (Ac-[dF]WLRW-NH2)
68% | 10 nM | CC(=O)N[C@@H](Cc1ccccc1)C(=O)NCC(=O)N[C@H](Cc1c[nH]c2ccccc12)C(=O)N[C@@H](CCCNC(=N)N)C(=O)N[C@@H](Cc1ccccc1)C(N)=O [Peptide 206] (Ac-FG[dW]RF-NH2)
55% | 1000 nM | CC(C)C[C@H](NC(=O)CNC(=O)[C@H](Cc1ccccc1)NC(=O)CNC(=O)[C@H](CC(N)=O)NC(=O)[C@H](Cc1c[nH]c2ccccc12)NC(=O)[C@H](CC(N)=O)NC(=O)[C@@H](N)Cc1ccc(O)cc1)C(=O)N[C@@H](CCCNC(=N)N)C(=O)N[C@@H](Cc1ccccc1)C(N)=O [Peptide 208] (H-YNWNGFGLRF-NH2)
61% | 100 nM | CC(C)C[C@@H](NC(=O)CNC(=O)[C@H](Cc1ccccc1)NC(=O)CNC(=O)[C@H](CC(N)=O)NC(=O)[C@H](Cc1c[nH]c2ccccc12)NC(=O)[C@H](CC(N)=O)NC(=O)[C@@H](N)Cc1ccc(O)cc1)C(=O)N[C@@H](CCCNC(=N)N)C(=O)N[C@@H](Cc1ccccc1)C(N)=O [Peptide 209] (H-YNWNGFG[dL]RF-NH2)
64% | < 0.1 nM | N=C(N)NCCC[C@H](NC(=O)[C@@H](Cc1c[nH]c2ccccc12)NC(=O)CNC(=O)[C@H](Cc1ccccc1)NC(=O)CNC(=O)[C@H](CC(N)=O)NC(=O)[C@H](Cc1c[nH]c2ccccc12)NC(=O)[C@H](CC(N)=O)NC(=O)[C@@H](N)Cc1ccc(O)cc1)C(=O)N[C@@H](Cc1ccccc1)C(N)=O [Peptide 210] (H-YNWNGFG[dW]RF-NH2)
73% | 1000 nM | CC(C)C[C@H](NC(=O)CNC(=O)[C@@H](Cc1ccccc1)NC(=O)CNC(=O)[C@H](CC(N)=O)NC(=O)[C@H](Cc1c[nH]c2ccccc12)NC(=O)[C@H](CC(N)=O)NC(=O)[C@@H](N)Cc1ccc(O)cc1)C(=O)N[C@@H](CCCNC(=N)N)C(=O)N[C@@H](Cc1ccccc1)C(N)=O [Peptide 211] (H-YNWNG[dF]GLRF-NH2)
68% | < 0.1 nM | CC(C)C[C@H](NC(=O)CNC(=O)[C@@H](Cc1c[nH]c2ccccc12)NC(=O)CNC(=O)[C@H](CC(N)=O)NC(=O)[C@H](Cc1c[nH]c2ccccc12)NC(=O)[C@H](CC(N)=O)NC(=O)[C@@H](N)Cc1ccc(O)cc1)C(=O)N[C@@H](CCCNC(=N)N)C(=O)N[C@@H](Cc1ccccc1)C(N)=O [Peptide 212] (H-YNWNG[dW]GLRF-NH2)
58% | 50 nM | CC(=O)N[C@@H](Cc1ccc(O)cc1)C(=O)N[C@@H](CC(N)=O)C(=O)N[C@@H](Cc1c[nH]c2ccccc12)C(=O)N[C@@H](CC(N)=O)C(=O)NCC(=O)N[C@@H](Cc1ccccc1)C(=O)NCC(=O)N[C@H](Cc1c[nH]c2ccccc12)C(=O)N[C@@H](CCCNC(=N)N)C(=O)N[C@@H](Cc1ccccc1)C(N)=O [Peptide 228] (Ac-YNWNGFG[dW]RF-NH2)
68% | 8000 nM | CC(=O)N[C@@H](Cc1ccc(O)cc1)C(=O)N[C@@H](CC(N)=O)C(=O)N[C@@H](Cc1c[nH]c2ccccc12)C(=O)N[C@@H](CC(N)=O)C(=O)N[C@H](Cc1c[nH]c2ccccc12)C(=O)N[C@@H](Cc1ccccc1)C(=O)NCC(=O)N[C@H](Cc1c[nH]c2ccccc12)C(=O)N[C@@H](CCCNC(=N)N)C(=O)N[C@@H](Cc1ccccc1)C(N)=O [Peptide 229] (Ac-YNWN[dW]FG[dW]RF-NH2)
55% | 0.1 nM | CC(=O)N[C@@H](Cc1ccc(O)cc1)C(=O)N[C@@H](CC(N)=O)C(=O)N[C@H](Cc1c[nH]c2ccccc12)C(=O)N[C@@H](CC(N)=O)C(=O)NCC(=O)N[C@@H](Cc1ccccc1)C(=O)NCC(=O)N[C@H](Cc1c[nH]c2ccccc12)C(=O)N[C@@H](CCCNC(=N)N)C(=O)N[C@@H](Cc1ccccc1)C(N)=O [Peptide 231] (Ac-YN[dW]NGFG[dW]RF-NH2)
0% | – | CC(=O)N[C@H](Cc1ccc(O)cc1)C(=O)N[C@@H](CC(N)=O)C(=O)N[C@@H](Cc1c[nH]c2ccccc12)C(=O)N[C@@H](CC(N)=O)C(=O)NCC(=O)N[C@@H](Cc1ccccc1)C(=O)NCC(=O)N[C@@H](Cc1c[nH]c2ccccc12)C(=O)N[C@@H](CCCNC(=N)N)C(=O)N[C@@H](Cc1ccccc1)C(N)=O [Peptide 237] (Ac-[dY]NWNGFGWRF-NH2)
